Results published in a melting point compilation (Tetko et al.).
Residues, ends and D or L forms follow the SMILES beside them. *: point of attachment. Boc = CC(C)(C)OC(=O)*; Bn = c1ccc(C*)cc1

Structure (SMILES)	melting point [°C]
Nc1nc2sc(Cc3ccccc3)cc2c(=O)[nH]1	294 to 296
COC(=O)Nc1cc(C(/C=C/c2c(OC)cc(OC)cc2OC)S(=O)(=O)C(/C=C/c2c(OC)cc(OC)cc2OC)c2ccc(OC)c(NC(=O)OC)c2)ccc1OC (configuration not stated)	188 to 191
Nc1cc(C(F)(F)C(F)(F)OC(F)(F)C(F)(OC(F)(F)C(F)(F)OC(F)(C(F)(F)F)C(F)(F)OC(F)(F)C(F)(F)c2ccc(O)c(N)c2)C(F)(F)F)ccc1O (configuration not stated)	55 to 58
CCCCCCCCCCCCS(=O)(=O)c1cc2c(cc1S(=O)(=O)CCCCCCCCCCCC)C(=O)c1c(c(O)c3cc(S(=O)(=O)CCCCCCCCCCCC)c(S(=O)(=O)CCCCCCCCCCCC)cc3c1O)C2=O	180 to 183
COc1c(Oc2nc3ccccc3o2)c(C)c(C)n(Cc2ccccc2)c1=O	197 to 198
Cc1cccc(-c2cc3ccccc3c(Cl)n2)n1	142 to 144
CC(=O)Oc1ccc(-c2cnc(N(S(=O)(=O)Cc3ccc(I)cc3)S(=O)(=O)Cc3ccc(I)cc3)c(Cc3ccccc3)n2)cc1	166 to 167
[C-]#[N+]C(C)C(=O)N(c1ccccc1)C(C)C (configuration not stated)	47 to 50
CC1(C)CC(Nc2nc(N(C3CC(C)(C)NC(C)(C)C3)C3CC(C)(C)NC(C)(C)C3)nc(N(C3CC(C)(C)NC(C)(C)C3)C3CC(C)(C)NC(C)(C)C3)n2)CC(C)(C)N1	318 to 320
Oc1c(Br)c(Br)c(-c2c(Br)c(Br)c(O)c(Br)c2Br)c(Br)c1Br	282
CC(C)C(NS(=O)(=O)N(C)Cc1ccccn1)C(=O)NC(Cc1ccccc1)C(O)C(O)C(Cc1ccccc1)NC(=O)C(NS(=O)(=O)N(C)Cc1ccccn1)C(C)C (configuration not stated)	85 to 89
C=CCOC(=O)NC(=O)C(c1ccccc1)c1ccccc1	118 to 120
C=CCN(CC=C)c1nc(NC(C)(C)CC(C)(C)C)nc(N(CCCCCCN(c2nc(NC(C)(C)CC(C)(C)C)nc(N(CC=C)CC=C)n2)C2CC(C)(C)NC(C)(C)C2)C2CC(C)(C)NC(C)(C)C2)n1	113 to 115
FC(F)(F)C(F)(F)C(F)(F)C(F)(F)C(F)(F)C(F)(F)C(F)(F)C(F)(F)C(F)(F)C(F)(F)CC[Si](Br)(CCC(F)(F)C(F)(F)C(F)(F)C(F)(F)C(F)(F)C(F)(F)C(F)(F)C(F)(F)C(F)(F)C(F)(F)F)CCC(F)(F)C(F)(F)C(F)(F)C(F)(F)C(F)(F)C(F)(F)C(F)(F)C(F)(F)C(F)(F)C(F)(F)F	80 to 81
Cc1cccc(-c2sc(N)nc2-c2ccc([N+](=O)[O-])c(O)c2)n1	260 to 262
COC(=O)COc1ccccc1	85 to 89
FC(F)(F)C(F)(F)C(F)(F)C(F)(F)C(F)(F)C(F)(F)C(F)(F)C(F)(F)CCCCCCC1(CCCCCCC(F)(F)C(F)(F)C(F)(F)C(F)(F)C(F)(F)C(F)(F)C(F)(F)C(F)(F)F)c2cc(Br)ccc2-c2ccc(Br)cc21	82 to 83
CCCCCCCCCCCCc1ccc(N=Nc2ccc(C(N)CCNC(=O)CCN(CCC(=O)NCCN(C)c3ccc(N=Nc4ccc(CCCCCCCCCCCC)cc4[N+](=O)[O-])cc3)c3ccc(N=Nc4ccc(CCCCCCCCCCCC)cc4[N+](=O)[O-])cc3)cc2)c([N+](=O)[O-])c1 (configuration not stated)	127 to 129
CC(NC(=O)C(Cc1ccc(OCc2ccccc2)cc1)NC(=O)C(COCc1ccccc1)NC(=O)C(Cc1c[nH]c2ccccc12)NC(=O)OC(C)(C)C)C(N)=O (configuration not stated) (Boc-WS(Bn)Y(Bn)A-NH2; configuration not given here)	180 to 185
CC(C)(C)c1cc2c(c(C(C)(C)C)c1)OP(OP1Oc3c(cc(C(C)(C)C)cc3C(C)(C)C)Cc3cc(C(C)(C)C)cc(C(C)(C)C)c3O1)Oc1c(cc(C(C)(C)C)cc1C(C)(C)C)C2	249 to 252
CC(C)(O)C(=O)c1ccc(C(OC(=O)c2ccc(C(=O)OC(c3ccc(C(=O)C(C)(C)O)cc3)c3ccc(C(=O)C(C)(C)O)cc3)cc2)c2ccc(C(=O)C(C)(C)O)cc2)cc1	102

Structure (SMILES)	melting point [°C]
CCCCCCCCNc1nc(NCCCCC2CC(C)(C)N(OCC(C)(C)O)C(C)(C)C2)nc(NCCCCC2CC(C)(C)N(OCC(C)(C)O)C(C)(C)C2)n1	68 to 86
O=C(OCc1ccc(OCCCCCCCCCCC2c3c(c4ccccc4c4ccccc34)-c3c2c2ccccc2c2ccccc32)cc1)C(=CNC1CC1)C(=O)c1cc(F)c(F)cc1F	49 to 51
CC(C)OCCOc1ccc(CCCOc2nn(C)cc2CC(=O)O)c(Oc2ncc(C(F)(F)F)cc2Cl)c1	104
CC(=O)OCC(COC(C)=O)NC(=O)c1c(I)c(C(=O)NC(COC(C)=O)COC(C)=O)c(I)c(N2CCC(Br)C2=O)c1I (configuration not stated)	232 to 234
CC(C)(C)c1cc(SC(Sc2cc(C(C)(C)C)c(O)c(C(C)(C)C)c2)C(Sc2cc(C(C)(C)C)c(O)c(C(C)(C)C)c2)Sc2cc(C(C)(C)C)c(O)c(C(C)(C)C)c2)cc(C(C)(C)C)c1O	221 to 223
CC(C)[C@H](NC(=O)N(C)Cc1nc2ccccc2[nH]1)C(=O)N[C@@H](Cc1ccccc1)C[C@H](O)[C@H](Cc1ccccc1)NC(=O)[C@@H](NC(=O)N(C)Cc1nc2ccccc2[nH]1)C(C)C	150 to 152
CCCCC1(CC)CS(=O)(=O)c2ccc(N(C)C)cc2C(c2cccc(NC(=O)COCCOCCOCC(=O)NCc3ccc(C4C(CCC(O)c5ccccc5)C(=O)N4c4ccc(F)cc4)cc3)c2)C1O (configuration not stated)	120
Cc1nc(C(=O)Cl)c(C)o1	37.7
CC(=O)OCC1OC(OC2C(COC(C)=O)OC(OC3C(CO)OC(OCCBr)C(O)C3O)C(OC(C)=O)C2OC(C)=O)C(OC(C)=O)C(OC(C)=O)C1OC(C)=O (configuration not stated)	178 to 180
CCCc1nn(C)c(C(=O)O)c1[N+](=O)[O-]	122 to 126
NCC1Cc2cc(F)cc(-c3ccoc3)c2O1 (configuration not stated)	236 to 239
COc1cc(OC)c(/C=C/C(c2ccc(OC)c(NC(=O)CO)c2)S(=O)(=O)C(/C=C/c2c(OC)cc(OC)cc2OC)c2ccc(OC)c(NC(=O)CO)c2)c(OC)c1 (configuration not stated)	174 to 176
CCSC(C)CC1CC(=O)C(=C(CC)NOCC=CCl)C(=O)C1 (configuration not stated)	< 25
CC(C)CCCC(C)C1CCC2C3CC=C4CC(N(CCCNC(=O)CCCCCNc5ccc([N+](=O)[O-])cc5[N+](=O)[O-])S(=O)(=O)c5ccccc5[N+](=O)[O-])CCC4(C)C3CCC12C (configuration not stated)	80 to 82
CCCc1nc(C(C)(C)O)c(C(=O)OC2OC(=O)c3ccccc32)n1Cc1ccc(-c2ccccc2-c2nnnn2C(c2ccccc2)(c2ccccc2)c2ccccc2)cc1 (configuration not stated)	118 to 120
CCCCCCC1(CCCCCC)c2cc(Br)ccc2-c2ccc(-c3ccc(-c4ccc5c(c4)C(CCCCCC)(CCCCCC)c4cc(Br)ccc4-5)c4snnc34)cc21	188 to 190
CC(C)Cn1c(C(O)c2ccc(Cl)cc2)nc2c(N)nc3ccccc3c21 (configuration not stated)	140 to 145
CCOC(=O)C(C)OC(=O)c1c(I)c(NC(C)=O)c(I)c(C(=O)OC(C)C(=O)OCC)c1I (configuration not stated)	160 to 165
CS(=O)(=O)c1ccc(-c2cc3c(cc2C(=O)c2cc4c(cc2-c2ccc(S(C)(=O)=O)cc2)OC(c2cc(F)cc(F)c2)CO4)OCC(c2cc(F)cc(F)c2)O3)cc1 (configuration not stated)	191 to 193
[C-]#[N+]c1c(Cl)cc(OC)cc1Cl	110 to 112
FC(F)(F)C1(CNC2=NCCN2)CCCCC1	154 to 157

Structure (SMILES)	melting point [°C]
CC(C)[C@H](NC(=O)N(C)Cc1ccccn1)C(=O)N[C@@H](Cc1ccccc1)[C@H](O)[C@@H](O)[C@H](Cc1ccccc1)NC(=O)[C@@H](NC(=O)N(C)Cc1csc(N)n1)C(C)C	97 to 99
COC(=O)CNC(=O)[C@H](NC(=O)[C@@H](CSC(c1ccccc1)(c1ccccc1)c1ccccc1)NC(=O)[C@@H](C)NC(=O)OCC1c2ccccc2-c2ccccc21)C(C)C	195 to 197
CS(C)(=O)=NC(=O)c1cc(Oc2ccc(C(F)(F)F)cc2Cl)ccc1Cl	128 to 131
CN(C)CCCN=S(=O)(c1ccccc1)c1cccs1 (configuration not stated)	125
CCCc1nc(OC)c(NC(=O)N2CCN(c3cc(OC)cc(OC)c3)CC2)cc1C(=O)NC(C)C(=O)Nc1cc(CO)cc(Nc2c3ccccc3nc3ccccc23)c1 (configuration not stated)	220 to 222
O=S(=O)(Cl)Cc1cccc(C(F)(F)F)c1	60
CC(C)(C)OC(=O)CC[C@H](NC(=O)CNC(=O)[C@H](CSC(c1ccccc1)(c1ccccc1)c1ccccc1)NC(c1ccccc1)(c1ccccc1)c1ccccc1)C(=O)OC(C)(C)C	98 to 110
COC(=O)CCc1ccc(N(c2ccc(-c3ccc(N(c4ccc(CCC(=O)OC)cc4)c4cccc5c4Cc4ccccc4-5)cc3)cc2)c2cccc3c2Cc2ccccc2-3)cc1	127 to 129
CCOC(=O)OC1=C(c2cc(C)ccc2C)C(=O)NC1CC1CCS(=O)(=NC(=O)C(F)(F)F)CC1 (configuration not stated)	87 to 89
CS(=N)(=O)c1ccc(Nc2ncc(Br)c(Cl)n2)cc1 (racemic)	170 to 173
NC(=O)c1cc(-c2ccccc2)c(=O)n2c1-c1sccc1CC2	281 to 282
COC(=O)[C@H](CC(C)C)NC(=O)CNC(=O)[C@H](Cc1ccc(O)cc1)NC(=O)[C@H](CO)NC(=O)[C@H](Cc1c[nH]c2ccccc12)NC(=O)[C@H](Cc1c[nH]cn1)NC(=O)[C@@H]1CCC(=O)N1	213 to 215
CCOC(=O)C1=C(COCC(O)C(O)COCC2=C(C(=O)OCC)C(c3ccccc3Cl)C(C(=O)OC)=C(C)N2)NC(C)=C(C(=O)OC)C1c1ccccc1Cl (configuration not stated)	76.5 to 78
Brc1cc(C(Br)(Br)C(Br)(Br)C(Br)(Br)c2ccccc2)c(Br)c(Br)c1Br	309 to 311
CC(C)[C@H](NC(=O)N(C)Cc1csc(N)n1)C(=O)N[C@@H](Cc1ccccc1)C[C@H](O)[C@H](Cc1ccccc1)NC(=O)[C@@H](NC(=O)N(C)Cc1csc(N)n1)C(C)C	110 to 114
COc1cc(OC)c(/C=C/C(c2ccc(OC)c(NCC(=O)O)c2)S(=O)(=O)C(/C=C/c2c(OC)cc(OC)cc2OC)c2ccc(OC)c(NCC(=O)O)c2)c(OC)c1 (configuration not stated)	128 to 131
CCOc1cc2c(cc1O)CCC1C2CCC2(C)C(O)CCC12 (configuration not stated)	154 to 155
N=S(=O)(c1ccccc1)c1cccs1 (configuration not stated)	133
O=C(Nc1c(Cl)cncc1Cl)C(=O)c1cn(Cc2c(F)cccc2[N+](=O)[O-])c2c(O)cccc12	308 to 310
Cc1ccccc1-n1c(-c2cc(-c3ccncc3)c(N3CCOCC3)s2)nc2ccccc2c1=O	208 to 210
